Among the data in paper PMC7026418, “The kinase polypharmacology landscape of clinical PARP inhibitors” (Scientific Reports, 2020) are percent of control binding values, retold here.

Like-named read-outs stand apart in the source and are kept apart here.

Among the targets are ALK (Homo sapiens, UniProt Q9UM73); HIPK3 (Homo sapiens, UniProt Q9H422); LIMK1 (Homo sapiens, UniProt P53667); MAP3K1 (Homo sapiens, UniProt Q13233); WNK3 (Homo sapiens, UniProt Q9BYP7).
Test in all cases: biochemical
Parameters in all cases: DiscoveRx KINOMEscan active site-directed competition binding; percent of control kinase bound to immobilised ligand

Another assay has as its target T1, GCN2(Kin.Dom.2,S808G) (Homo sapiens, UniProt Q9P2K8, S808G).
T1 construct: gene EIF2AK4; Kin.Dom.2

For another assay, the target named is T2, MEK2 (Homo sapiens, UniProt P36507).
T2 construct: gene MAP2K2

In the next assay the target is T3, NEK1 (Homo sapiens, UniProt Q96PY6).
T3 sequence (Q96PY6 1-1258): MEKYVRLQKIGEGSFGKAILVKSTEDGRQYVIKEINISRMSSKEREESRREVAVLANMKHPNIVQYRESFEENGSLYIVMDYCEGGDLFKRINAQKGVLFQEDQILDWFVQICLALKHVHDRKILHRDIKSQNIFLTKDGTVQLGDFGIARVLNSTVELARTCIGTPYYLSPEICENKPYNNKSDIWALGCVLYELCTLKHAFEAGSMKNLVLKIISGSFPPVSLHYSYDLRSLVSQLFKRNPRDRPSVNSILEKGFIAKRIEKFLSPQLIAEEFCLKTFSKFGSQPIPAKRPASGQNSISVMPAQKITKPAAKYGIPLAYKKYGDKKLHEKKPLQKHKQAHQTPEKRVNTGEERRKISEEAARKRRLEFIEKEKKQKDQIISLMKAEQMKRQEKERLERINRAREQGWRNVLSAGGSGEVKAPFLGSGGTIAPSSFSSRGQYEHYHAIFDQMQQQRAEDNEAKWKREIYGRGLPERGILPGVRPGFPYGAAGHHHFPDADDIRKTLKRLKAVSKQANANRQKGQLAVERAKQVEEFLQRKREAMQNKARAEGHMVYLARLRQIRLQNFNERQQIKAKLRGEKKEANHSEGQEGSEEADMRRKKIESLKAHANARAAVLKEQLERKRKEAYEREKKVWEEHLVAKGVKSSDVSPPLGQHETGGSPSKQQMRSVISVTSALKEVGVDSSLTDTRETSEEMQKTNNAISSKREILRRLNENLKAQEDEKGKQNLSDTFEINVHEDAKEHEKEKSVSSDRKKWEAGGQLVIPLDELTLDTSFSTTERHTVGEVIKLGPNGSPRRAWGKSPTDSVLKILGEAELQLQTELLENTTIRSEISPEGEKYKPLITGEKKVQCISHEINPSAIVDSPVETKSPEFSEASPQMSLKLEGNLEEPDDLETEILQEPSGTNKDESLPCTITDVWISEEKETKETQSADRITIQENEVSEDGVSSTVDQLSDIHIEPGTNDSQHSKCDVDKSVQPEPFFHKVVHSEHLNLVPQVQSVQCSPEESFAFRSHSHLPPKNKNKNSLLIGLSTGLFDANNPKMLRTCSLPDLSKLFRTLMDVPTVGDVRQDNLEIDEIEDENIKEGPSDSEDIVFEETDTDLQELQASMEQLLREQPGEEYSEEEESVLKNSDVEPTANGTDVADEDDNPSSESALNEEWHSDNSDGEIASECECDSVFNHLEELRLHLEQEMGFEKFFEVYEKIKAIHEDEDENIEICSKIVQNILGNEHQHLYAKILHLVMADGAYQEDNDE

In a further assay the target is T4, PRKG2 (Homo sapiens, UniProt Q13237).
T4 sequence (Q13237 1-762): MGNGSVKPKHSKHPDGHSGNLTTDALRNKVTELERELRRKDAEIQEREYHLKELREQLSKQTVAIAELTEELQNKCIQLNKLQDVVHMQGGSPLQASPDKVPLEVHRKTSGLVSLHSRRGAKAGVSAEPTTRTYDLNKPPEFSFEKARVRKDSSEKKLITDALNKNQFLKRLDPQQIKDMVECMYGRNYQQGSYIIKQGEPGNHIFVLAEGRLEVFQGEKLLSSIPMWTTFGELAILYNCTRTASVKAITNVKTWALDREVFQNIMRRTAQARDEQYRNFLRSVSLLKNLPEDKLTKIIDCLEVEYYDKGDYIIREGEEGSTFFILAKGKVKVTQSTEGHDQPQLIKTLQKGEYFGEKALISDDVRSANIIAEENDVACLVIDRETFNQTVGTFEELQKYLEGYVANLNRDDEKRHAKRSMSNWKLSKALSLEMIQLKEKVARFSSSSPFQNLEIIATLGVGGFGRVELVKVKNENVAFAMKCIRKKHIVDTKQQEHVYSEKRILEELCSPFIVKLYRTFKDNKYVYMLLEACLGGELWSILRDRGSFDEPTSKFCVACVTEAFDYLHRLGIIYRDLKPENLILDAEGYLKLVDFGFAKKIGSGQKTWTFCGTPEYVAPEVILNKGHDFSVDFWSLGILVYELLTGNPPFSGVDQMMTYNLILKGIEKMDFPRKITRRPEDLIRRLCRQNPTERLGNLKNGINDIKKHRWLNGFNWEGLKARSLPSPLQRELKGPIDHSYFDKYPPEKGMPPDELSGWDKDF

Setting [1] is: read-out: Niraparib (MK-4827) / %Ctrl @ 10000nM.
Where [2] appears, read: read-out: Olaparib / %Ctrl @ 10000nM.
Setting [3] is: read-out: Rucaparib / %Ctrl @ 10000nM, binding competition, % of control.
Where [4] appears, read: read-out: Talazoparib (BMN 673) / %Ctrl @ 10000nM.

HIPK3, sequence (Q9H422 whole entry): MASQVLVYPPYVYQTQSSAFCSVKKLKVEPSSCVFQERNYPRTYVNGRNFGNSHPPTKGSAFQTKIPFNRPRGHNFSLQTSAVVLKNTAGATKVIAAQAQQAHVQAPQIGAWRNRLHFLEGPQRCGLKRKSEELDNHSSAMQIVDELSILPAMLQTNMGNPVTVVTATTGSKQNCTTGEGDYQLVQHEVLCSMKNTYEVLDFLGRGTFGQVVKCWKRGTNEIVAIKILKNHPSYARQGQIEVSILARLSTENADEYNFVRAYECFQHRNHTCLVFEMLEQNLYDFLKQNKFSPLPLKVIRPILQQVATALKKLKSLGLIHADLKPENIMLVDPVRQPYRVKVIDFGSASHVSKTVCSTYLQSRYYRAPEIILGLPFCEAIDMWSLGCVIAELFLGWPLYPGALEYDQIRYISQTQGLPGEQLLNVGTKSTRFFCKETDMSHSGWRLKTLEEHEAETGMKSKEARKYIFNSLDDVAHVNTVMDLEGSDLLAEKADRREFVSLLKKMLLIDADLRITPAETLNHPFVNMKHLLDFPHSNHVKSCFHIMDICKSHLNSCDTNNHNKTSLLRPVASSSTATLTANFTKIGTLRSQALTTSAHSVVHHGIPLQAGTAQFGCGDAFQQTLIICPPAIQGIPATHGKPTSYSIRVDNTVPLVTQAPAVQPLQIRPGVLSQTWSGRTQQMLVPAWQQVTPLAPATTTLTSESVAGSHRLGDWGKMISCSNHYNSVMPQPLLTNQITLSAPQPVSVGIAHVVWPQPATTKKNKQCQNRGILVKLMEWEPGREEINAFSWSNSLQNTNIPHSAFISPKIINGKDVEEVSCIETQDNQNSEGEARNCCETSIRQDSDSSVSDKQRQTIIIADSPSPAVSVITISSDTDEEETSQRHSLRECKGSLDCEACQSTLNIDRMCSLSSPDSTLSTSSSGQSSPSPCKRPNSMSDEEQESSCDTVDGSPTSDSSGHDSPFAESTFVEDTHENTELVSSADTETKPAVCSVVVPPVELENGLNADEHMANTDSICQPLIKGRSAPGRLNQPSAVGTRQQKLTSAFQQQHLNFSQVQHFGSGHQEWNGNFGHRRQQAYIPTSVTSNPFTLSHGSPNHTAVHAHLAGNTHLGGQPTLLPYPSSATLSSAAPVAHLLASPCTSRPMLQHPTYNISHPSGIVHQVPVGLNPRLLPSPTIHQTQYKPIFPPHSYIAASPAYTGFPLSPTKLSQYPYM
LIMK1, sequence (P53667 whole entry): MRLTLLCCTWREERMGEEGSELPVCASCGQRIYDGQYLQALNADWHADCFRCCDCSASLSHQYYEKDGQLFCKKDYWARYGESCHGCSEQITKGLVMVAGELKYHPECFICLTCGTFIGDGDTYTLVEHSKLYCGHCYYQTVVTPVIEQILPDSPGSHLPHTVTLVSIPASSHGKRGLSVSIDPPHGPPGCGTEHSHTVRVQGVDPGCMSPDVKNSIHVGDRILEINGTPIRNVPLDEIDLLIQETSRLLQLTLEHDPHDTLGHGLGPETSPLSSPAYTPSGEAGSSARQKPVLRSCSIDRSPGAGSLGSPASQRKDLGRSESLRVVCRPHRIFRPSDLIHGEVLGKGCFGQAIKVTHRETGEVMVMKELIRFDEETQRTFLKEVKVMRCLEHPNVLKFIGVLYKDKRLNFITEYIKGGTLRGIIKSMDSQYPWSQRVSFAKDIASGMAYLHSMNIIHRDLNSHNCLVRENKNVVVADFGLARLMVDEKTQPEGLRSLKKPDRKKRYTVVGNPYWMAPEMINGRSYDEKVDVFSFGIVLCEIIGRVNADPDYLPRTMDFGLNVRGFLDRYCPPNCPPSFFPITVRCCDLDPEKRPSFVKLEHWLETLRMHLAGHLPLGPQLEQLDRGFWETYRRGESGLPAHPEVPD
ALK, sequence (Q9UM73 whole entry): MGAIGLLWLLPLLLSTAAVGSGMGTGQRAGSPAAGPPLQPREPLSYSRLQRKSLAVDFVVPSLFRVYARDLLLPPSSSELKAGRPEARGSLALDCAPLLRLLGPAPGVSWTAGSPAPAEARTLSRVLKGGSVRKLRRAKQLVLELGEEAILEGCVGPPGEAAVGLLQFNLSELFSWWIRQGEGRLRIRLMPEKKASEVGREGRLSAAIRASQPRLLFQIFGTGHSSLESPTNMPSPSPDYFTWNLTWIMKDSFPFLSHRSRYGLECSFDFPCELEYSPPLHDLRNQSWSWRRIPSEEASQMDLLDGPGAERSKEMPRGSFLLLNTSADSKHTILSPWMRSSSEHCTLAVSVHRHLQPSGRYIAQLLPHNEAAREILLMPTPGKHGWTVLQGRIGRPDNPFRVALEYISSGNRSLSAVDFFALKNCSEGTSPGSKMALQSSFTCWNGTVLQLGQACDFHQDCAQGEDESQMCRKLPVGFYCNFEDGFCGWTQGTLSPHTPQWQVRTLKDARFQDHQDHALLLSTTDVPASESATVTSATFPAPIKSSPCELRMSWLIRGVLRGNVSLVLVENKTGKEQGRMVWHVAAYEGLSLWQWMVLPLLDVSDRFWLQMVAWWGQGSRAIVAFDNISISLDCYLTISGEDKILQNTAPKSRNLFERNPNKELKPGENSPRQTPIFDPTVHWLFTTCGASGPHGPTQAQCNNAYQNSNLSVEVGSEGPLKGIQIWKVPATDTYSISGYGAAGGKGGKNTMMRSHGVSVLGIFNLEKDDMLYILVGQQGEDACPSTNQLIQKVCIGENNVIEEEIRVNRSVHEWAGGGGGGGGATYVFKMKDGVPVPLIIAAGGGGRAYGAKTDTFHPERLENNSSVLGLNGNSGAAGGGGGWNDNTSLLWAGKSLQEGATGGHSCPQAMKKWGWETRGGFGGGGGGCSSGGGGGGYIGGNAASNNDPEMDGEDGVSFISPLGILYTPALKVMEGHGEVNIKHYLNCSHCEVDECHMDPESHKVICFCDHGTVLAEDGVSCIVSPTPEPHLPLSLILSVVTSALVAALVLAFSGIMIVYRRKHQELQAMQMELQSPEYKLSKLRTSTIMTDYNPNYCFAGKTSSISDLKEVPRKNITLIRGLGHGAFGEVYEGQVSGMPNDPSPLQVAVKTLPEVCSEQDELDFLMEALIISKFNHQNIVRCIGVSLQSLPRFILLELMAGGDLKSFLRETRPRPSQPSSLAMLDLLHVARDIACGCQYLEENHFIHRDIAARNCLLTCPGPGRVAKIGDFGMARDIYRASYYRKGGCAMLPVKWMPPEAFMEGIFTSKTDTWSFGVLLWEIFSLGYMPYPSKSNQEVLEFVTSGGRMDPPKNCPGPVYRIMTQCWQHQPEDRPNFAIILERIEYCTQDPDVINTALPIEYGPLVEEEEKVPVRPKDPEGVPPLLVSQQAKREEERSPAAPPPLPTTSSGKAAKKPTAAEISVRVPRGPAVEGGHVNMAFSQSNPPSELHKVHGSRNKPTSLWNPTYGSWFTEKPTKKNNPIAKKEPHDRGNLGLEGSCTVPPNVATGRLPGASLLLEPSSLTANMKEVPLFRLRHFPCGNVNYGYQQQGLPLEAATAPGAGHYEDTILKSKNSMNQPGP
T1 sequence (Q9P2K8 whole entry S808G): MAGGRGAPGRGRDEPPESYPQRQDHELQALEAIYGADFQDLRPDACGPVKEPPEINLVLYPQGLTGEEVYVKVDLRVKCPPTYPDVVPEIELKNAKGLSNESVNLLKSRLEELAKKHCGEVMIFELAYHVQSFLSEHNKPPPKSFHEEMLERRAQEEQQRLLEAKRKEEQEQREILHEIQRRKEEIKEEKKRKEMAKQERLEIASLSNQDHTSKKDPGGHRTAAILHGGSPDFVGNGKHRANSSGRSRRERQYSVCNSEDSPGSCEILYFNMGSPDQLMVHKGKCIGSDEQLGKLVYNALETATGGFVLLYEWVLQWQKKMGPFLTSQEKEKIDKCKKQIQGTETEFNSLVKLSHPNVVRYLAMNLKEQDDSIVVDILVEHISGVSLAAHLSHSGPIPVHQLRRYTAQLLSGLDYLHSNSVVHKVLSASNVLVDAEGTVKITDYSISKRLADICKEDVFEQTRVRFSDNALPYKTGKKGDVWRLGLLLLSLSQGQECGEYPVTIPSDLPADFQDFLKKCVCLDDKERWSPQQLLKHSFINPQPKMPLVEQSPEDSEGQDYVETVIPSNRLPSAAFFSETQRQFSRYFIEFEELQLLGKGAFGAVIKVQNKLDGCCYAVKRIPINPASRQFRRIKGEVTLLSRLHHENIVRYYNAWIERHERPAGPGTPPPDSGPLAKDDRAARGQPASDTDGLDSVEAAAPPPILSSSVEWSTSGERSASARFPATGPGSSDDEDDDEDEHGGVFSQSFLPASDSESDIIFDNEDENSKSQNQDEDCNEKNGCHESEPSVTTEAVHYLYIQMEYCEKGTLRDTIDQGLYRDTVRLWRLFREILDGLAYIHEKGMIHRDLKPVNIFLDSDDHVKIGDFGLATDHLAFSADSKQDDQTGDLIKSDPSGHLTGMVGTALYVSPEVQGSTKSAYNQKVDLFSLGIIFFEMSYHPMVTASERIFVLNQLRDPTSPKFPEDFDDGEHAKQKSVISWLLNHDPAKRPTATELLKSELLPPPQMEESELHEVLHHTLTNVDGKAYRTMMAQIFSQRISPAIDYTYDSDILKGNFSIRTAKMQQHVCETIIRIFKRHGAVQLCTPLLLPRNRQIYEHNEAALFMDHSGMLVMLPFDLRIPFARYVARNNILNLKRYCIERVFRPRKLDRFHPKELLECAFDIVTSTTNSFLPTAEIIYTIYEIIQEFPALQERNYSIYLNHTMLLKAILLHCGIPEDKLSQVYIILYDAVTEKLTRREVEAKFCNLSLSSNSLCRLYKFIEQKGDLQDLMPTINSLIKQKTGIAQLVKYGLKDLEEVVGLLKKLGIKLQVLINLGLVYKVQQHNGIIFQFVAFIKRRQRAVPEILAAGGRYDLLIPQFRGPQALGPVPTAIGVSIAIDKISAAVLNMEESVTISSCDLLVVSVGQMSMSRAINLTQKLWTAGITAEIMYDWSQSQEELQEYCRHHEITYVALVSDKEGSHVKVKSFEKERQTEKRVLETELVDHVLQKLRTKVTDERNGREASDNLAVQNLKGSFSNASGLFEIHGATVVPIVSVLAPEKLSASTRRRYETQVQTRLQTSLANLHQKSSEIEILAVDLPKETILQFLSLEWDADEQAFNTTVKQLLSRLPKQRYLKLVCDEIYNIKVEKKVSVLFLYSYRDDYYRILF

`NC(=O)c1cccc2cn(-c3ccc([C@@H]4CCCNC4)cc3)nc12` [Niraparib]: the percent of control binding at 10 µM on ALK (setting [1]) came to 98%; at GCN2(Kin.Dom.2,S808G) (setting [1]), 83%; at HIPK3 (setting [1]), 2.5%; at LIMK1 (setting [1]) it was 82%; on MAP3K1 (setting [1]) it was 92%; at MEK2 (setting [1]) it was 74%. For the same compound, the values for the percent of control binding at 10 µM on NEK1 (setting [1]), on PRKG2 (setting [1]) and at WNK3 (setting [1]) were 98%, 97% and 100%, respectively.
As to `O=C(c1cc(Cc2n[nH]c(=O)c3ccccc23)ccc1F)N1CCN(C(=O)C2CC2)CC1` [Olaparib], the percent of control binding at 10 µM was found to be 86% on ALK (setting [2]); 93% on GCN2(Kin.Dom.2,S808G) (setting [2]); 100% on HIPK3 (setting [2]); 100% at LIMK1 (setting [2]); 91% on MAP3K1 (setting [2]); 87% at MEK2 (setting [2]). For the same compound, the percent of control binding at 10 µM at NEK1 (setting [2]) was determined as 74%; on PRKG2 (setting [2]), 85%; on WNK3 (setting [2]), 88%.
In the case of `CNCc1ccc(-c2[nH]c3cc(F)cc4c3c2CCNC4=O)cc1` [Rucaparib], the percent of control binding at 10 µM is 45% at ALK (setting [3]); 55% at GCN2(Kin.Dom.2,S808G) (setting [3]); 18% at HIPK3 (setting [3]); 100% at LIMK1 (setting [3]); 98% at MAP3K1 (setting [3]); 79% on MEK2 (setting [3]). The percent of control binding at 10 µM on NEK1 (setting [3]) amounted to 90%; at PRKG2 (setting [3]), 60%; on WNK3 (setting [3]), 86%.
As to `Cn1ncnc1[C@H]1c2n[nH]c(=O)c3cc(F)cc(c23)N[C@@H]1c1ccc(F)cc1` [Talazoparib], the percent of control binding at 10 µM at ALK (setting [4]) worked out at 100%; on GCN2(Kin.Dom.2,S808G) (setting [4]) it was 100%; at HIPK3 (setting [4]), 55%; on LIMK1 (setting [4]), 99%; at MAP3K1 (setting [4]), 97%; on MEK2 (setting [4]) it was 57%. For the same compound, the figures for the percent of control binding at 10 µM on NEK1 (setting [4]), on PRKG2 (setting [4]) and on WNK3 (setting [4]) were 80%, 100% and 100%, respectively.
